Assay results as given in article PMC10931833, “Simultaneous Purification of Human Interferon Alpha-2b and Serum Albumin Using Bioprivileged Fluorinated Ionic Liquid-Based Aqueous Biphasic Systems” (International Journal of Molecular Sciences, 2024).

Columns and labels:
[1] = set-up: method as in earlier work; details: aqueous solution at 25 °C, ref 3 (supplement; main text ref 71), cited from earlier work; for 1st CAC / 2nd CAC / 3rd CAC: ITC ([C2C1Im][C4F9SO3]) or conductometry ([N1112(OH)][C4F9SO3])
[2] = target: T1, IFN-α2b (Homo sapiens, UniProt P01563); test: CD thermal unfolding (Tm) of IFN-α2b; assay type: physicochemical; details: 0.125 mg/ml IFN-α2b, 200 mM component aqueous solution
T1 construct: single non-glycosylated polypeptide chain with a molecular weight of 19 kDa, comprising 165 amino acids; purchased Millipore Sigma-Aldrich SRP4595-100UG; host or cells: E. coli
Method: The same analyses attained for 208 nm and 192 nm are illustrated in Figures S5 and S6 in the Supplementary Materials. The corresponding T m values are estimated by fitting to a sigmoid with four parameters (one-way ANOVA, significance level of 0.05) and summarized in Table S2 in the Supplementary Materials. The CD T m of 0.125 mg/mL native IFN- α 2b is in good agreement with what was previously reported. […] The estimated T m values are summarized in Table S2 in the Supplementary Materials. The same analysis is attained for 208 nm and 192 nm, as depicted in Figures S5 and S6 in the Supplementary Materials. All the CD T m results are summarized in Table S2 in the Supplementary Materials. The thermal stability assessed by far-UV CD is solely determined through the thermal decay of the alpha-helical structure.
The same analysis was attained for 208 nm and 192 nm as illustrated in Figure S13 in the Supplementary Materials. The corresponding T m values are depicted in Table 5, and were estimated by fitting a sigmoid with four parameters (one-way ANOVA, with a significance level of 0.05).

[3] = target: T2, BSA (Bos taurus, UniProt P02769); test: DSC thermal unfolding of BSA in water and aqueous solutions of ABS phase-forming components; assay type: physicochemical, bovine; details: for Tm / ΔG / ΔHcal / ΔHcal/ΔHvH / ΔHvH / ΔS: 1.0 mg/mL BSA; for increase of BSA Tm (DSC): FIL at the highest concentration (120 mM) vs water
T2 construct: purchased Millipore Sigma-Aldrich
Method: Differential scanning calorimetry (DSC) measurements were performed with Nano DSC equipment, as detailed in Section 3, and used to determine the melting temperature (T m ) and enthalpy ( Δ H) of protein unfolding. DSC analyzes changes in the structure and stability of proteins as thermal transitions at the nanoscale. Using DSC to measure heat capacity as a function of the temperature of a well-studied protein such as BSA provides keen insights into folding and unfolding processes, as well as factors affecting stability. Due to the volume and concentration requirements of the DSC technique, and the constraints in available quantities of IFN- α 2b the DSC experiments on the ABS phase-forming components’ effect on the structural properties of proteins were attained only for BSA.
The T m of BSA, which corresponds to the thermal unfolding transition midpoint, was measured in the absence and presence of the ABS phase-forming components at increasing concentrations (see Figure 1 and Table 2).

[4] = target: T1, IFN-α2b; test: Far-UV CD secondary structure of IFN-α2b (CONTIN-LL deconvolution); assay type: physicochemical; details: 0.125 mg/mL IFN-α2b, 200 mM component, 25 °C
Text: Circular dichroism (CD) is widely used to study the secondary structures of proteins, peptides and nucleic acids, because it requires a low concentration sample, is a nondestructive method, allows studying a wide range of variables (temperature, pH, etc.), and provides information on the effect of added ligands on protein folding and interactions.
Circular dichroism (CD) spectra were collected in a 10 mm quartz cuvette and a Chirascan spectropolarimeter (Applied Photophysics, UK) at room temperature. All CD spectra were recorded in the far-UV range of 190 to 260 nm at scan rates of 50 nm/min, with 4 accumulations, and a response time of 3 s; CD spectra were collected. For each CD experiment, two distinct duplicates were acquired and combined. […] Spectral deconvolution was carried out with DichroWeb using the CONTIN-LL deconvolution algorithm with the SMP180 reference set.

[5] = target: T2, BSA; test: CD thermal unfolding (Tm) of BSA; assay type: physicochemical, bovine; details: 1.0 mg/ml BSA, 200 mM component aqueous solution
Text: The thermal stability assessed by far-UV CD is solely determined through the thermal decay of the alpha-helical structure.

T1 sequence (P01563 24-188): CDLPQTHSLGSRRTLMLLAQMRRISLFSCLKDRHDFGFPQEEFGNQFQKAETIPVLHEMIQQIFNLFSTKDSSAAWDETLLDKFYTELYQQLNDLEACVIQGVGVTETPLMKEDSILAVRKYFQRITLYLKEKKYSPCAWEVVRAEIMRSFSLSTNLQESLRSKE
T2 sequence (P02769 25-607): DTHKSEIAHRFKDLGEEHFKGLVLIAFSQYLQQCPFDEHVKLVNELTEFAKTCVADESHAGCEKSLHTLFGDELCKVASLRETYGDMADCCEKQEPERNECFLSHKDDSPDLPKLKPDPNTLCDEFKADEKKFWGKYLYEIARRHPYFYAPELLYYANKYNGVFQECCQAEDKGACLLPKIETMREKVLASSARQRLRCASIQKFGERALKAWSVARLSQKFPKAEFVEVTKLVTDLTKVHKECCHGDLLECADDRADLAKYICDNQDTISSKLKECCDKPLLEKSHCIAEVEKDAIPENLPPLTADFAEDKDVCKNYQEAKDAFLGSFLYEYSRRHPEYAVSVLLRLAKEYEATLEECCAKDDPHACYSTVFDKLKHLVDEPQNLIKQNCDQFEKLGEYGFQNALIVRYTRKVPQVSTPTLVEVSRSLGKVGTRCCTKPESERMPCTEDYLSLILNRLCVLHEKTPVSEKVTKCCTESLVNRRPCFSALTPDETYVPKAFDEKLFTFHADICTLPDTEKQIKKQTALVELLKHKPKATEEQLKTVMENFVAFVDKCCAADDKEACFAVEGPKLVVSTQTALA

## CCn1cc[n+](C)c1.O=S(=O)([O-])C(F)(F)C(F)(F)C(F)(F)C(F)(F)F [1-ethyl-3-methylimidazolium perfluorobutane sulfonate]
[1]
  1st CAC: 14.40 mM
  2nd CAC: 34.48 mM
  3rd CAC: 76.54 mM
[1]; ITC
  4th CAC: 106.09 mM
[2]
  Tm, Ellipticity 192 nm: 53.633 °C
[3]; 0.1 mM component
  Tm: 75.55 °C
  ΔG: 17.28 kcal/mol
  ΔHcal: 120.2 kcal/mol
  ΔHcal/ΔHvH: 1.028
  ΔHvH: 117 kcal/mol
  ΔS: 1.445 KJ/(mol.K)
[3]; 1 mM component
  Tm: 75.62 °C
  ΔG: 20.41 kcal/mol
  ΔHcal: 141.5 kcal/mol
  ΔHcal/ΔHvH: 1.050
  ΔHvH: 134.8 kcal/mol
  ΔS: 1.700 KJ/(mol.K)
[3]; 5 mM component
  Tm: 80.59 °C
  ΔG: 30.02 kcal/mol
  ΔHcal: 190.7 kcal/mol
  ΔHcal/ΔHvH: 0.967
  ΔHvH: 197.2 kcal/mol
  ΔS: 2.255 KJ/(mol.K)
[3]; 10 mM component
  Tm: 80.94 °C
  ΔG: 29.09 kcal/mol
  ΔHcal: 183.6 kcal/mol
  ΔHcal/ΔHvH: 1.061
  ΔHvH: 173.1 kcal/mol
  ΔS: 2.168 KJ/(mol.K)
[3]; 25 mM component
  Tm: 82.57 °C
  ΔG: 32.53 kcal/mol
  ΔHcal: 200.3 kcal/mol
  ΔHcal/ΔHvH: 0.972
  ΔHvH: 205.9 kcal/mol
  ΔS: 2.354 KJ/(mol.K)
[3]; 55 mM component
  Tm: 84.28 °C
  ΔG: 39.89 kcal/mol
  ΔHcal: 239.24 kcal/mol
  ΔHcal/ΔHvH: 1.105
  ΔHvH: 216.5 kcal/mol
  ΔS: 2.798 KJ/(mol.K)
[3]; 120 mM component
  Tm: 86.15 °C
  ΔG: 33.99 kcal/mol
  ΔHcal: 198.6 kcal/mol
  ΔHcal/ΔHvH: 1.051
  ΔHvH: 189 kcal/mol
  ΔS: 2.310 KJ/(mol.K)
[3]
  increase of BSA Tm (DSC): approximately 11 °C
[4]
  Distorted Alpha Helix: 0.153
  Distorted Beta Sheet: 0.069
  Regular Alpha Helix: 0.292
  Regular Beta Sheet: 0.05
  Turns: 0.204
  Unordered: 0.232

## CCCCn1cc[n+](C)c1.O=S(=O)([O-])C(F)(F)F [[C4C1Im][CF3SO3], 1-butyl-3-methylimidazolium trifluoromethanesulfonate]
[5]
  Tm, Ellipticity 192 nm: 75.050 °C
  Tm, Ellipticity 208 nm: 77.089 °C
  Tm, Ellipticity 222 nm: 74.833 °C
[3]; 0.1 mM component
  Tm: 74.54 °C
  ΔG: 17.42 kcal/mol
  ΔHcal: 122.6 kcal/mol
  ΔHcal/ΔHvH: 0.946
  ΔHvH: 129.6 kcal/mol
  ΔS: 1.476 KJ/(mol.K)
[3]; 1 mM component
  Tm: 75.31 °C
  ΔG: 14.67 kcal/mol
  ΔHcal: 100.9 kcal/mol
  ΔHcal/ΔHvH: 0.987
  ΔHvH: 102.2 kcal/mol
  ΔS: 1.210 KJ/(mol.K)
[3]; 5 mM component
  Tm: 81.43 °C
  ΔG: 27.34 kcal/mol
  ΔHcal: 171.4 kcal/mol
  ΔHcal/ΔHvH: 1.069
  ΔHvH: 160.3 kcal/mol
  ΔS: 2.021 KJ/(mol.K)
[3]; 10 mM component
  Tm: 79.02 °C
  ΔG: 19.07 kcal/mol
  ΔHcal: 123.7 kcal/mol
  ΔHcal/ΔHvH: 1.024
  ΔHvH: 120.7 kcal/mol
  ΔS: 1.468 KJ/(mol.K)
[3]; 25 mM component
  Tm: 72.02 °C
  ΔG: 11.14 kcal/mol
  ΔHcal: 80.45 kcal/mol
  ΔHcal/ΔHvH: 0.992
  ΔHvH: 81.09 kcal/mol
  ΔS: 0.973 KJ/(mol.K)
[3]; 55 mM component
  Tm: 72.44 °C
  ΔG: 12.4 kcal/mol
  ΔHcal: 89.82 kcal/mol
  ΔHcal/ΔHvH: 0.960
  ΔHvH: 93.55 kcal/mol
  ΔS: 1.086 KJ/(mol.K)
[3]; 120 mM component
  Tm: 76.32 °C
  ΔG: 16.9 kcal/mol
  ΔHcal: 114 kcal/mol
  ΔHcal/ΔHvH: 0.969
  ΔHvH: 117.7 kcal/mol
  ΔS: 1.363 KJ/(mol.K)
[3]; tested concentration range vs water
  effect on BSA Tm (DSC): maintained

## C[N+](C)(C)CCO.O=S(=O)([O-])C(F)(F)C(F)(F)C(F)(F)C(F)(F)F [[N1112(OH)][C4F9SO3], (2-hydroxyethyl)trimethylammonium perfluorobutane sulfonate]
[1]
  1st CAC: 16.02 mM
  2nd CAC: 35.17 mM
  3rd CAC: 185.65 mM
[2]
  Tm, Ellipticity 192 nm: 35.992 °C
  Tm, Ellipticity 208 nm: 61.234 °C
  Tm, Ellipticity 222 nm: 56.542 °C
[5]
  Tm, Ellipticity 208 nm: 92.409 °C
[3]; 0.1 mM component
  Tm: 79.77 °C
  ΔG: 22.44 kcal/mol
  ΔHcal: 144.1 kcal/mol
  ΔHcal/ΔHvH: 1.064
  ΔHvH: 135.5 kcal/mol
  ΔS: 1.708 KJ/(mol.K)
[3]; 1 mM component
  Tm: 80.57 °C
  ΔG: 22.08 kcal/mol
  ΔHcal: 138.2 kcal/mol
  ΔHcal/ΔHvH: 0.921
  ΔHvH: 150 kcal/mol
  ΔS: 1.629 KJ/(mol.K)
[3]; 5 mM component
  Tm: 79.79 °C
  ΔG: 26.41 kcal/mol
  ΔHcal: 169.4 kcal/mol
  ΔHcal/ΔHvH: 0.884
  ΔHvH: 191.5 kcal/mol
  ΔS: 2.007 KJ/(mol.K)
[3]; 10 mM component
  Tm: 82.78 °C
  ΔG: 32.27 kcal/mol
  ΔHcal: 197.9 kcal/mol
  ΔHcal/ΔHvH: 1.156
  ΔHvH: 171.3 kcal/mol
  ΔS: 2.325 KJ/(mol.K)
[3]; 25 mM component
  Tm: 84.18 °C
  ΔG: 30.31 kcal/mol
  ΔHcal: 182 kcal/mol
  ΔHcal/ΔHvH: 1.019
  ΔHvH: 178.6 kcal/mol
  ΔS: 2.128 KJ/(mol.K)
[3]; 55 mM component
  Tm: 86.11 °C
  ΔG: 31.57 kcal/mol
  ΔHcal: 184.7 kcal/mol
  ΔHcal/ΔHvH: 0.929
  ΔHvH: 198.7 kcal/mol
  ΔS: 2.149 KJ/(mol.K)
[3]; 200 mM component
  Tm: 87.23 °C
  ΔG: 28.51 kcal/mol
  ΔHcal: 167.9 kcal/mol
  ΔHcal/ΔHvH: 1.024
  ΔHvH: 163.9 kcal/mol
  ΔS: 1.956 KJ/(mol.K)
[3]
  increase of BSA Tm (DSC): ~12 °C
[4]
  Distorted Alpha Helix: 0.148
  Distorted Beta Sheet: 0.064
  Regular Alpha Helix: 0.303
  Regular Beta Sheet: 0.071
  Turns: 0.188
  Unordered: 0.226
